Measured values as given in publication PMC9583845, “Characterization of the chicken melanocortin 5 receptor and its potential role in regulating hepatic glucolipid metabolism” (Frontiers in Physiology, 2022).
“Also recorded” adds a separate entry of the source. Where two headings read alike, the source gives them in different places. Blank lines part the entries; values can stand above or below the compound they belong to.

Assays:
chicken MC5R [1] = biological target: T1, chicken MC5R (Gallus gallus, UniProt O73671); experiment: pGL3-CRE-luciferase reporter assay, CHO cells expressing chicken MC5R; assay type: cell-based; details: for ability to activate / sensitivity of cMC5R (in words, ranking): CHO cells expressing cMC5R; for EC50: Figure 2B, CHO cells transiently expressing cMC5R, 10^−12–10^−6 M, 6 h, mean ± SEM of three replicates (N = 3), representative of three independent experiments, read-out: EC50 (activation of cMC5R)
Text: All chemicals were purchased from Sigma-Aldrich (St. Louis, MO, United States) and the restriction enzymes were obtained from TaKaRa (Dalian, China). […] All primers used in this study were synthesized by Beijing Genome Institute (BGI, China) and listed in Supplementary Table 1.
The expression plasmids encoding MC5R, MRAP1 and MRAP2 were established by cloning their entire open reading frame (ORF) into the pcDNA3.1 (+) expression vector (Invitrogen).
The cells were then transfected with a mixture containing 700 ng pGL3-CRE-Luciferase reporter construct, 200 ng of receptor expression plasmid (or empty pcDNA3.1 vector as a negative control), 20 ng of pRL-TK construct (containing a Renilla luciferase gene, used as an internal control), and 2 μl jetPRIME transfection reagent (Polyplus Transfection, Illkirch, France) in 200 μL buffer. […] After removal of the medium from the 96-well plate, the cells were treated with 100 μl ligand-containing medium (or ligand-free medium) for 6 h. Finally, CHO cells were lysed with 1 × passive lysis buffer for luciferase assay (Promega) and the luciferase activity of the cell lysate was measured by a Multimode Microplate Reader (TriStar LB941, EG&G Berthold, Germany) according to the manufacturer’s instruction.
All statistical analysis was performed using GraphPad Prism 9 (Graph Pad Software Inc., San Diego, CA). The dose-response curves were constructed using nonlinear regression models. Student’s test was used to compare two groups, for more than two groups one-way ANOVA was performed followed by Dunnett’s test. To validate our results, all in-vitro experiments were repeated three times, and representative data are reported.

[2] = test system: AC/cAMP/PKA signaling (cMC5R); experiment: Inhibition of ACTH- or α-MSH-stimulated luciferase activity in CHO cells expressing cMC5R; assay type: cell-based, chicken; details: for inhibition of ACTH-stimulated luciferase activity: inhibitor (H89 10 μM, MDL 5 μM) added 0.5 h before ACTH (10 nM, 6 h), Figure 2E; for inhibition of α-MSH-stimulated luciferase activity: inhibitor (H89 10 μM, MDL 5 μM) added 0.5 h before α-MSH (10 nM, 6 h), Figure 2F
Protocol: In brief, CHO cells were cultured on a six-well plate (Nunc, Roskilde, Denmark) and grown for 24 h before transfection. The cells were then transfected with a mixture containing 700 ng pGL3-CRE-Luciferase reporter construct, 200 ng of receptor expression plasmid (or empty pcDNA3.1 vector as a negative control), 20 ng of pRL-TK construct (containing a Renilla luciferase gene, used as an internal control), and 2 μl jetPRIME transfection reagent (Polyplus Transfection, Illkirch, France) in 200 μL buffer. Twenty-four hours later, CHO cells were sub-cultured into a 96-well plate at 37°C for an additional 24 h before treatment. After removal of the medium from the 96-well plate, the cells were treated with 100 μl ligand-containing medium (or ligand-free medium) for 6 h. Finally, CHO cells were lysed with 1 × passive lysis buffer for luciferase assay (Promega) and the luciferase activity of the cell lysate was measured by a Multimode Microplate Reader (TriStar LB941, EG&G Berthold, Germany) according to the manufacturer’s instruction.
To test whether cMRAP1 and cMRAP2 can alter the pharmacological properties of cMC5R, CHO cells co-expressing MC5R and cMRAP1/cMRAP2 were treated with chicken ACTH1–39/α-MSH, and the relative potential of these two peptides to activate the receptor was also determined using the pGL3-CRE-luciferase reporter system. At the same time, H89 (a PKA inhibitor, 10 μM) and MDL12330 A (an AC inhibitor, 5 μM) were used to further determine the signal pathways activated by ACTH1-39/α-MSH.

chicken MC5R D119A = details: ref Min et al., 2019; cited from earlier work
chicken MC5R D204A = details: ref Min et al., 2019; cited from earlier work
chicken MC5R [3] = biological target: T1, chicken MC5R; design: method as in 3 sources, ref Ling et al., 2004 ||| ref Dores et al., 2020 ||| ref Schioth et al., 1997; Ling et al., 2004; details: cited from earlier work; for ability of hACTH1-39 vs hACTH1-24 to activate chicken MC5R: ref Schioth et al., 1997, Ling et al.; for ability of hACTH1-39 vs hACTH1-24 to activate chicken MC5R / EC50 values / potency at chicken MC5R compared (in words): 2004; for EC50 values / potency at chicken MC5R compared (in words): human α-MSH vs ACTH1-24, ref Ling et al.
human MC5R = details: ref Schioth et al., 1997; Ling et al., 2004; cited from earlier work
Text: The luciferase reporter system was then employed to investigate the signal pathway of MC5R coupling. […] Human peptides have previously been ...

[4] = test system: THRSPA mRNA, primary chicken hepatocytes; experiment: THRSPA mRNA in primary chicken hepatocytes, RT-qPCR; assay type: cell-based; details: 6 h, N = 4, Figures 8D-F
Protocol: (§1) To evaluate the effect of ACTH1-39 on chicken liver, the chicken hepatocytes were prepared and maintained as a monolayer culture. Briefly, one-month-old male chicken hepatocytes were isolated by perfusion of a liver with Ca^2+-free KRB buffer to remove blood cells, and being digested with 0.25% collagenase-I for 10 min. Hepatocytes were obtained following filtering and washing using M199 medium. Then the hepatocytes were plated in a Corning CellBIND 48-well microplate (Corning, NY, cat. no.3338) with M199 medium containing 100 U/ml penicillin and […] streptomycin (Gibco), 5 μg/ml bovine insulin (Sigma), and 5% FBS at 37°C in a 5% CO2 atmosphere. To adhere to the wall, the cells were incubated on the 48-well plate for 4 h.
(§2) For quantitative real-time PCR, primary cultured chicken hepatocytes were treated with various concentrations of ACTH1-39 (or other composition) at 37°C for 6 h. The relative amount of mRNA was calculated using the comparative Ct method. Chicken β-actin gene was used as the reference gene. Amplification of specific transcripts was confirmed by analyzing the melting curve profile performed at the end of each run and by determining the size of the PCR products using agarose electrophoresis and ethidium bromide staining.

[5] = test system: ELOVL6 mRNA, primary chicken hepatocytes; experiment: ELOVL6 mRNA in primary chicken hepatocytes, RT-qPCR; assay type: cell-based; details: 6 h, N = 4, Figures 8A-C
Protocol: as §1, §2

[6] = test system: MC5R mRNA, primary chicken hepatocytes; experiment: MC5R mRNA in primary chicken hepatocytes, RT-qPCR; assay type: cell-based; details: primary chicken hepatocytes, 6 h, N = 4, vs β-actin, Figures 6C-E
Protocol: as §1, with “h. For quantitative real-time PCR, primary cultured chicken hepatocytes were treated with various concentrations of ACTH1-39 (or other composition) at 37°C for 6 h. The relative amount of mRNA was calculated using the comparative Ct method. Chicken β-actin gene was used as the reference gene. Amplification of specific transcripts was confirmed by analyzing the melting curve profile performed at the end of each run and by determining the size of the PCR products using agarose electrophoresis and ethidium bromide staining.” for “h.”

chicken MC5R F254A = details: ref Min et al., 2019; cited from earlier work
hMC5R + MRAP2 = details: in vitro; ref Chan et al., 2009; cited from earlier work
Text: Our results were consistent with previous results. […] In zebrafish, MRAP2a decreased the surface expression and efficacy of MC5Ra/MC5Rb, but not MRAP2b, in the same manner as mouse MRAP2 did ([Zhu et al., 2019]). In ricefield eel (Monopterus albus), two isoforms of MRAP2 (maMRAP2X1 and maMRAP2X2) significa ...

chicken MC5R + MRAP2 = chicken MC5R + MRAP2 (Gallus gallus, UniProt O73671); design: method as in Thomas et al., 2018; details: ref Thomas et al., 2018; cited from earlier work
chicken MC2R + MRAP1 = details: co-expressed with MRAP1 in CHO cells; ref Barlock et al., 2014; cited from earlier work
Text: In the chicken genome, there are five paralogous MCRs and two MRAPs ([Ling et al., 2004]; [Barlock et al., 2014]; [Zhang et al., 2017]; [Thomas et al., 2018]). In recent years, the pharmacological characterization and physiological activity of chicken MCRs (cMCRs) have been widely explored ([Scanes and Pierzchala-Koziec, 2021]). […] MC1R of dark-feathered chickens with a Glu to Lys mutation at position 92 show ...

MC5R orthologs + MRAP1 = details: ref Dores et al., 2018, Barney et al., 2019, 2020, Hoglin et al., 2022; cited from earlier work
Text: (§3) Since the R15K and I20 V substitutions in chicken and human ACTH occur in/near the KKRRP motif (Figure 2A), it might lead to different regulatory effects o ...

chicken MC5R + MRAP1 = chicken MC5R + MRAP1 (Gallus gallus, UniProt O73671); details: 2020, cited from earlier work; for effect of MRAP1 on cMC5R sensitivity: CHO cells, ref Thomas et al., 2018, Dores et al.
Text: as §3

T1 sequence (O73671 1-325): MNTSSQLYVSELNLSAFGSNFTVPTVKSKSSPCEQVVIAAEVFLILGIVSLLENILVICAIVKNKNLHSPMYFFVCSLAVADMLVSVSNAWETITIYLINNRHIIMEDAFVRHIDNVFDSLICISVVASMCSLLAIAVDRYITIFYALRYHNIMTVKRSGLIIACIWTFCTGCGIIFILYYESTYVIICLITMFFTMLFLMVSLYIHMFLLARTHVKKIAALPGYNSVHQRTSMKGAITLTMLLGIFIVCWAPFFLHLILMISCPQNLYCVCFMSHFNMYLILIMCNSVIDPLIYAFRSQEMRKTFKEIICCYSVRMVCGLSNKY
Sequence of chicken MC5R + MRAP1 (O73671 1-325): as above
Sequence of chicken MC5R + MRAP2 (O73671 1-325): as above
Sequence of chicken MC5R + MRAP2 (A0A140B2F4 1-206 partner): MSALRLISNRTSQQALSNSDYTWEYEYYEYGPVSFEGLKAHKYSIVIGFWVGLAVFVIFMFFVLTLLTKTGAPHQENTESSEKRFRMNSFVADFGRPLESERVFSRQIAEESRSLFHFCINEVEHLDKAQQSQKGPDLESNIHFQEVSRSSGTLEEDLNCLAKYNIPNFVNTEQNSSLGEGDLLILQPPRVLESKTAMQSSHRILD

ability to activate / sensitivity of cMC5R (in words, ranking) (chicken MC5R [1]): ACTH1-39 ≈ α-MSH > β-MSH > γ-MSH
EC50 (chicken MC5R [1]): 38.7 ± 6.51 nM
Compound: H-DGGSYRMRHFRWHAPLKD-OH [β-MSH]

Compound: Cl.c1ccc(C2CCCC2NC2=NCCCCCCCCCCC2)cc1 (centres unmarked) [MDL12330 A]
inhibition of ACTH-stimulated luciferase activity [2]: significantly inhibit
inhibition of α-MSH-stimulated luciferase activity [2]: significantly inhibit

Compound: SHU9119
response of D119A mutant (chicken MC5R D119A): completely unresponsive
response of D204A mutant (chicken MC5R D204A): completely unresponsive

Compound: hACTH1-39: human ACTH1-39 (SYSMEHFRWGKPVGKKRRPVKVYPNGAEDESAEAFPLEF; Corticotropin; UniProt P01189 138-176, looked up)
ability of hACTH1-39 vs hACTH1-24 to activate chicken MC5R (chicken MC5R [3]): no different
ability of hACTH1-39 vs hACTH1-24 to activate human MC5R (human MC5R): no different

Compound: C=C[C@@]1(C)CC(=O)[C@]2(O)[C@@]3(C)[C@@H](O)CCC(C)(C)[C@@H]3[C@H](O)[C@H](OC(C)=O)[C@@]2(C)O1 [forskolin]
THRSPA mRNA expression [4]: did not affect the expression
THRSPA mRNA expression ([4]; listed as Forskolin): not affected
ELOVL6 mRNA expression [5]: did not affect the expression
ELOVL6 mRNA expression ([5]; listed as Forskolin): not affected
MC5R mRNA abundance (in words) [6]: significantly increased MC5R mRNA abundance; also recorded: enhance the expression of MC5R in cultured hepatocytes in a dose-dependent manner

Compound: O=S(=O)(NCCNC/C=C/c1ccc(Br)cc1)c1cccc2cnccc12 [H89]
inhibition of ACTH-stimulated luciferase activity [2]: significantly inhibit
inhibition of α-MSH-stimulated luciferase activity [2]: significantly inhibit

Compound: NDP-MSH
reactivity of F254A mutant (chicken MC5R F254A): significantly reduced the reactivity
response of D119A mutant (chicken MC5R D119A): completely unresponsive
response of D204A mutant (chicken MC5R D204A): completely unresponsive
efficacy at hMC5R with MRAP2 (hMC5R + MRAP2): reduced the efficacy of hMC5R to NDP-MSH

ability to activate / sensitivity of cMC5R (in words, ranking) (chicken MC5R [1]): ACTH1-39 ≈ α-MSH > β-MSH > γ-MSH
EC50 (chicken MC5R [1]): 144 ± 15.4 nM
Compound: Ac-YVMSHFRWNKF-NH2 [γ-MSH]

Compound: Nc1ncnc2c1nc(Br)n2[C@@H]1O[C@@H]2COP(=O)(O)O[C@H]2[C@H]1O [8-Br-cAMP]
THRSPA mRNA expression [4]: not affected; also recorded: did not affect the expression
ELOVL6 mRNA expression [5]: not affected; also recorded: did not affect the expression
MC5R mRNA abundance (in words) [6]: dose-dependent increase in MC5R mRNA abundance; also recorded: enhance the expression of MC5R in cultured hepatocytes in a dose-dependent manner

Compound: human ACTH1-24: shortened form of hACTH1-39 used in cited studies
EC50 values / potency at chicken MC5R compared (in words) (chicken MC5R [3]): equal potency for chicken MC5R
EC50 values / potency at chicken MC5R compared (in words) (chicken MC5R [3]; listed as ACTH1-24): equivalent
ability of hACTH1-39 vs hACTH1-24 to activate chicken MC5R (chicken MC5R [3]): no different
EC50 compared, hACTH1-24 vs srACTH1–24 (chicken MC5R [3]; srACTH1–24 has R15 and I20, ref Dores et al., 2020): no statistical differences in the EC50 values
effect of MRAP2 on cMC5R sensitivity (chicken MC5R + MRAP2): no influence on cMC5R sensitivity to human ACTH1–24
activation of cMC2R (chicken MC2R + MRAP1): can be activated by ACTH1-24
effect of MRAP1 co-expression on sensitivity of MC5R orthologs (MC5R orthologs + MRAP1): increase sensitivity to ACTH1-24
effect of MRAP1 on cMC5R sensitivity (chicken MC5R + MRAP1): improved chicken MC5R sensitivity to human ACTH1-24
effect of MRAP1 on cMC5R sensitivity (chicken MC5R + MRAP1; listed as hACTH1–24): significantly increased the sensitivity of cMC5R to hACTH1–24
increase of MC5R sensitivity to hACTH1–24 with cMRAP1 (chicken MC5R + MRAP1; KKRRP motif of hACTH1–24 necessary, ref Dores et al.): ~1,000 fold
ability of hACTH1-39 vs hACTH1-24 to activate human MC5R (human MC5R): no different
